Test results: patent US7501440B2, “Substituted benzoylureidopyridylpiperidine-and-pyrrolidinecarboxylic acid derivatives, processes for preparing them and their use” (Sanofi-Aventis Deutschland GmbH, priority 2003, dated 2009)

biological target: T1, human glycogen phosphorylase a (Homo sapiens, UniProt P06737); experiment: Glycogen phosphorylase a activity test; format: biochemical; details: inhibition of GPa in vitro, reverse direction (glycogen synthesis from glucose 1-phosphate, release of inorganic phosphate)
T1 sequence (P06737 1-847): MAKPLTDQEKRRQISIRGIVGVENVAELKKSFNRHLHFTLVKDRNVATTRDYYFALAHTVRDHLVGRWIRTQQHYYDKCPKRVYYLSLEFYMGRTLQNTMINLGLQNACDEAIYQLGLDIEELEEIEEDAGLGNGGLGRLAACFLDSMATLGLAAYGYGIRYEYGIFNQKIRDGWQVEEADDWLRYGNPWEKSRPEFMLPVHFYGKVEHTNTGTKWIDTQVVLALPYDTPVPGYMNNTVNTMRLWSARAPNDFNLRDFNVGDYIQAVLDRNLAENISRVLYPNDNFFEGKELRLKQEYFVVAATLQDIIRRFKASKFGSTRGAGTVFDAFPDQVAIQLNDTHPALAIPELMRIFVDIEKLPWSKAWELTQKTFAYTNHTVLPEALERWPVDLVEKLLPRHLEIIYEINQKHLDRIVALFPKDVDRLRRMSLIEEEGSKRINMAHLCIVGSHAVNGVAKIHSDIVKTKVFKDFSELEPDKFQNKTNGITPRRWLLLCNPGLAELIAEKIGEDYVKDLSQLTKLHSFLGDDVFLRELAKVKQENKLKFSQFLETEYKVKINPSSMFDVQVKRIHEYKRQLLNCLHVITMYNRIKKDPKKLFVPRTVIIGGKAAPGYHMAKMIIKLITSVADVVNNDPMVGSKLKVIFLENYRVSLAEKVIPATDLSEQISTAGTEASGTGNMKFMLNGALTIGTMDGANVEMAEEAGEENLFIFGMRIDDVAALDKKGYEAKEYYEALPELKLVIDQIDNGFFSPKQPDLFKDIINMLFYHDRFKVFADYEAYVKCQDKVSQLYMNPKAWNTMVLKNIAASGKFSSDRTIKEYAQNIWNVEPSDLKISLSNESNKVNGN
Description: Glycogen Phosphorylase a Activity Test
The effect of compounds on the activity of the active form of glycogen phosphorylase (GPa) was measured in the reverse direction by monitoring the synthesis of glycogen from glucose 1-phosphate by determining the release of inorganic phosphate. All reactions were carried out as duplicate determinations in 96-well microtiter plates (half area plates, Costar No. 3696), and the change in absorption as a consequence of the formation of the reaction product was measured at the wavelength specified below in a Multiskan Ascent Elisa Reader (Lab Systems, Finland). In order to measure the GPa enzyme activity in the reverse direction, the conversion of glucose 1-phosphate to glycogen and inorganic phosphate was measured by the general method of Engers et al. (Engers H D, Shechosky S, Madsen N B, Can J Biochem 1970 July; 48(7):746-754) with the following modifications: human glycogen phosphorylase a (for example containing 0.76 mg of protein/ml (Aventis Pharma Deutschland GmbH), dissolved in buffer solution E (25 mM β-glycerophosphate, pH 7.0, 1 mM EDTA and 1 mM dithiothreitol) was diluted to a concentration of 10 μg of protein/ml with buffer T (50 mM Hepes, pH 7.0, 100 mM KCI, 2.5 mM EDTA, 2.5 mM MgCl2·6H2O) and addition of 5 mg/ml of glycogen. Test substances were prepared as a 10 mM solution in DMSO and diluted to 50 μM with buffer solution T. To 10 μl of this solution were added 10 μl of 37.5 mM glucose dissolved in buffer solution T and 5 mg/ml of glycogen, and also 10 μl of a solution of human glycogen phosphorylase a (10 μg of protein/ml) and 20 μl of 2.5 mM glucose 1-phosphate. The base value of the activity of glycogen phosphorylase a in the absence of test substance was determined by adding 10 μl of buffer solution T (0.1% DMSO). The mixture was incubated at room temperature for 40 minutes and the released inorganic phosphate was determined by means of the general method of Drueckes et al. (Drueckes P, Schinzel R, Palm D, Anal Biochem 1995 September 1;230(1):173-177) with the following modifications: 50 μl of a stop solution of 7.3 mM of ammonium molybdate, 10.9 mM of zinc acetate, 3.6% of ascorbic acid, 0.9% of SDS are added to 50 μl of the enzyme mixture. After 60 minutes of incubation at 45° C., the absorption was measured at 820 nm. To determine the background absorption, the stop solution was added immediately after the addition of the glucose 1-phosphate solution in a separate reaction. […]

Row | SMILES | IC50
1 | O=C(NC(=O)c1ccc(F)cc1Cl)Nc1cccnc1N1CCC(C(=O)O)CC1 [Example 1, 3′-[3-(2-Chloro-4-fluorobenzoyl)ureido]-3,4,5,6-tetrahydro-2H-[1,2′]bipyridinyl-4-carboxylic acid] | 0.04 µM
2 | O=C(NC(=O)c1cc(F)c(F)cc1Cl)Nc1cccnc1N1CCC(C(=O)O)CC1 [Example 2, 3+-[3-(2-Chloro-4,5-difluorobenzoyl)ureido]-3,4,5,6-tetrahydro-2H-[1,2′]bipyridinyl-4-carboxylic acid] | 0.01 µM

Other lines, results leading:

Row | IC50 | SMILES
3 | 0.16 µM | NC(=O)C1CCN(c2ncccc2NC(=O)NC(=O)c2cc(F)c(F)cc2Cl)CC1 [Example 4, 3′-[3-(2-Chloro-4,5-difluorobenzoyl)ureido]-3,4,5,6-tetrahydro-2H-[1,2′]bipyridinyl-4-carboxamide]
4 | 3.65 µM | O=C(NC(=O)c1cc(F)c(F)cc1Cl)Nc1cccnc1N1CCC(C(=O)NCCO)CC1 [Example 5, N-(2-hydroxyethyl)-3′-[3-(2-chloro-4,5-difluorobenzoyl)ureido]-3,4,5,6-tetrahydro-2H-[1,2′]bipyridinyl-4-carboxamide]

test system: not given; experiment: not given; details: not given

Row | melting point | SMILES
5 | 195.9 °C | COC(=O)C1CCN(c2ncccc2NC(=O)NC(=O)c2cc(F)c(F)cc2Cl)CC1 [Example 3, Methyl 3′-[3-(2-chloro-4,5-difluorobenzoyl)ureido]-3,4,5,6-tetrahydro-2H-[1,2′]bipyridinyl-4-carboxylate]
6 | 250.9 °C | O=C(NC(=O)c1cc(F)c(F)cc1Cl)Nc1cccnc1N1CCC(C(=O)O)(c2ccccc2)CC1 [Example 6, 3′-[3-(2-Chloro-4,5-difluorobenzoyl)ureido]-4-phenyl-3,4,5,6-tetrahydro-2H-[1,2′]bipyridinyl-4-carboxylic acid]
